We go through 26 molecules from patent US8178683B2, “Antimicrobial ortho-fluorophenyl oxazolidinones for treatment of bacterial infections” (Micurx Pharmaceuticals, Inc., priority 2007, dated 2012).

Test [1] concerns methicillin-resistant Staphylococcus aureus (MRSA). The test can be described thus: Minimum inhibitory concentration (MIC) against MRSA clinical isolate. Type of test: cell-based. The note with it: clinical isolate of MRSA from the Massachusetts General Hospital. An excerpt:
Compounds of this invention can have useful activity against a variety of pathogenic microorganisms. The in vitro activity of compounds of this invention can be assessed by standard testing procedures such as the determination of minimum inhibitory concentration (MIC) by agar dilution as described in “Approved Standard. Methods for Dilution Antimicrobial Susceptibility Tests for Bacteria That Grow Aerobically”, 3rd. ed., published 1993 by the National Committee for Clinical Laboratory Standards, Villanova, Pa., USA. Minimum inhibitory concentration (MIC) refers to the lowest concentration of drug (μg/mL) that inhibits visible growth of the organism. Lower MIC values indicate a higher antibacterial activity. Typically, compounds of present invention have useful potency against Gram-positive or Gram-negative pathogens with MIC values of ≦16 μg/mL. The useful activity of compounds of the present invention against a clinical isolate of methicillin-resistant Staphylococcus aureus (MRSA; from the Massachusetts General Hospital, USA) is illustrated by the MIC data of Table 1.

Test [2] concerns human CD34+ bone marrow cells. The test can be described thus: Myelosuppressive potential: bone marrow CD34+ cell growth inhibition, luminescence assay. Type of test: cell-based. The note with it: 9-10 days at 37° C., Linezolid value of side-by-side test in parenthesis; for IC50: Homo sapiens, CD34+ cell. How it is done:
Myelosuppressive potential (hematopoietic or bone marrow toxicity) was evaluated using human CD34^+ bone marrow cells, generally following methods described by Leach in International Patent Publication No. WO 2006/097828. Thus, an oxazolidinone compound was incubated with fresh human bone marrow cells for 9-10 days at 37° C. in 5% CO2 atmosphere. At end of the incubation period, the bone marrow toxicity was accessed by measuring inhibition (IC50, μg/mL) of CD34^+ cell growth using a luminescence assay. Lower IC50 value indicates a higher myelosuppression potential with enhanced probability of undesired adverse effects in vivo, while a higher IC50 value indicates reduced bone marrow toxicity. The CD34^+ inhibition data for representative compounds of this invention are illustrated in the Table 2 below.

Test [3] concerns the target T1, Human monoamine oxidase (MOA) A type enzyme (Homo sapiens, UniProt P21397).
T1 construct: purchased BD Gentest
T1 sequence (P21397 1-527): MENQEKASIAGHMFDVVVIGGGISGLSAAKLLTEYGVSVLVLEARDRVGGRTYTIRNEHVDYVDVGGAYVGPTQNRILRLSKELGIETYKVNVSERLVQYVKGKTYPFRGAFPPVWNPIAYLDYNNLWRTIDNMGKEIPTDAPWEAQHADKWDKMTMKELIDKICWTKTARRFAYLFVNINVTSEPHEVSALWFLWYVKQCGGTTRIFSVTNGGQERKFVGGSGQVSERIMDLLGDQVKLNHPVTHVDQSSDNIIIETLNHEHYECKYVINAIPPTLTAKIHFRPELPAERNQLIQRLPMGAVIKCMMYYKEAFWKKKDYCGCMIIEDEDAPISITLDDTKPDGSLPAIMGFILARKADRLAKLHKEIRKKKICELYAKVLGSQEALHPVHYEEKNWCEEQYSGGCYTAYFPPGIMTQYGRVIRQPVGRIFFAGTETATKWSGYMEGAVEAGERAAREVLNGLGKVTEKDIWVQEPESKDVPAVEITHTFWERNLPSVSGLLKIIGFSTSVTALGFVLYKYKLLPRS
The test can be described thus: MAO-Glo monoamine oxidase A enzyme inhibition assay. Type of test: biochemical. The note with it: human MAO A enzyme (BD Gentest), MAO-Glo kit; Linezolid value of side-by-side test in parenthesis. How it is done: Human monoamine oxidase (MOA) A type enzyme inhibition activity for select compounds was measured using a commercial MAO assay kit MAO-Glo™ from Promega Co. (USA). The assay was performed as described in the company's technical bulletin “MAO-Glo™ Assay”. The protocol involves an incubation of the MAO A enzyme (BD Gentest™) with a luminogenic MAO substrate to produce an enzymatic product which is converted to luciferin by a coupled reaction. The released luciferin undergoes further transformation to generate light that is detected and measured. The amount of the light is directly proportional to the activity of MAO. Percent inhibition at several concentrations is established relative to the uninhibited control rate, and the IC50 (μg/mL) values are calculated. […] The MAO inhibition data for select compound of this invention are illustrated in the Table 2 below.

The MIC is the smallest concentration in the dilution series that meets the test's criterion for growth inhibition. In general, IC50 refers to the concentration at which inhibition is half-maximal.

The structures appear in SMILES notation. Converted amounts (≈) assume the structure as drawn. “And” between values parts separate entries of the source, which are not always exact repeats. Identical values can stand only once.

In turn, `Cc1cc(NC[C@H]2CN(c3cc(F)c(N4C=CC(=O)CC4)c(F)c3F)C(=O)O2)no1` [Example 6] gave an MIC in test [1] of 4 µg/mL (≈ 9.47 µM). Still for that read-out and setting: with `O=C1C=CN(c2c(F)cc(N3C[C@H](Cn4ccnn4)OC3=O)c(F)c2F)CC1` [Example 3] the figure was 1 µg/mL (≈ 2.54 µM). With `N#Cc1cn(C[C@H]2CN(c3cc(F)c(N4C=CC(=O)CC4)c(F)c3F)C(=O)O2)nn1` [Example 19], the MIC in test [1] worked out at 4 µg/mL (≈ 9.56 µM). Same read-out and setting: then `O=C1C=CN(c2cc(F)c(N3C[C@H](Cn4ccnn4)OC3=O)cc2F)CC1` [Example 18], with 4 µg/mL (≈ 10.7 µM); and `Cc1cn(C[C@H]2CN(c3cc(F)c(N4C=CC(=O)CC4)c(F)c3F)C(=O)O2)nn1` [Example 8], with 4 µg/mL (≈ 9.82 µM).

In test [1], `O=C1C=CN(c2c(F)cc(N3C[C@H](CO)OC3=O)c(F)c2F)CC1` [Example 1] displayed a minimum inhibitory concentration (MIC) of 4 µg/mL (≈ 11.7 µM). Still for that read-out and setting: then `CC(=O)NC[C@H]1CN(c2ccc(N3C=CC(=O)CC3)c(F)c2F)C(=O)O1` [Example 9], with 1 µg/mL (≈ 2.74 µM). Regarding `CC(=O)NC[C@H]1CN(c2ccc(N3CCOCC3)c(F)c2)C(=O)O1` [Linezolid, linezolid, reference compound], the “CD34 IC50” value in test [2] is “Range 7.9-14.0 μg/mL”; in test [2] (listed as Lin.), 14.0 µg/mL and 8.1 µg/mL. Further, the IC50 in test [2] is 7.9 µg/mL (≈ 23.4 µM); in test [3], 11.3 µM. The molecule further had an MIC in test [1] of 2 µg/mL (≈ 5.93 µM). For `CC(=O)NC[C@H]1CN(c2cc(F)c(N3CCOCC3)c(F)c2F)C(=O)O1` [Example 26, reference compound], the MIC in test [1] came out at 2 µg/mL (≈ 5.36 µM). Same read-out and setting: with `Cn1nnnc1-c1ccc(-c2ccc(N3C[C@H](CO)OC3=O)c(F)c2F)cn1` [Example 22] the figure was 1 µg/mL (≈ 2.58 µM). The same measure, in the same setting: then `Cn1nnc(-c2ccc(-c3cc(F)c(N4C[C@H](Cn5ccnn5)OC4=O)cc3F)cn2)n1` [Example 21], with 2 µg/mL (≈ 4.55 µM).

As for `CCC(=O)NC[C@H]1CN(c2ccc(N3C=CC(=O)CC3)c(F)c2F)C(=O)O1` [Example 15], in test [1], it took 2 µg/mL (≈ 5.27 µM) to inhibit growth (MIC). On to `O=C1C=CN(c2ccc(N3C[C@H](Cn4ccnn4)OC3=O)c(F)c2F)CC1` [Example 11], for which inhibition of growth in test [1] (MIC) required 1 µg/mL (≈ 2.66 µM).

As to `O=C1C=CN(c2ccc(N3C[C@H](Cn4ccnn4)OC3=O)cc2F)CC1` [Example 25, reference compound], the IC50 in test [2] was 2.6 µg/mL (≈ 7.28 µM); in test [3], 5.04 µM.

The molecule `COC(=O)NC[C@H]1CN(c2ccc(-c3ccc(-c4nnnn4C)nc3)c(F)c2F)C(=O)O1` [Example 23] returned an MIC in test [1] of 1 µg/mL (≈ 2.25 µM). Still for that read-out and setting: then `CC(=O)NC[C@H]1CN(c2cc(F)c(N3C=CC(=O)CC3)cc2F)C(=O)O1` [Example 17], with 4 µg/mL (≈ 10.9 µM); and `O=C1C=CN(c2ccc(N3C[C@H](CNc4ccon4)OC3=O)c(F)c2F)CC1` [Example 14], with 0.25 µg/mL (≈ 0.64 µM); and `O=C1C=CN(c2ccc(N3C[C@H](CO)OC3=O)c(F)c2F)CC1` [Example 10], with 2 µg/mL (≈ 6.17 µM). Regarding `O=C1C=CN(c2c(F)cc(N3C[C@H](Cn4cc(F)nn4)OC3=O)c(F)c2F)CC1` [Example 20], inhibition of growth in test [1] (MIC) required 4 µg/mL (≈ 9.72 µM). `Cc1cn(C[C@H]2CN(c3ccc(N4C=CC(=O)CC4)c(F)c3F)C(=O)O2)nn1` [Example 12] gave a minimal inhibitory concentration (MIC) in test [1] of 4 µg/mL (≈ 10.3 µM). `CCC(=O)NC[C@H]1CN(c2cc(F)c(N3C=CC(=O)CC3)c(F)c2F)C(=O)O1` [Example 7]: in test [1], the lowest concentration to inhibit growth (MIC) was 2 µg/mL (≈ 5.03 µM). For `CC(=O)NC[C@H]1CN(c2cc(F)c(N3C=CC(=O)CC3)c(F)c2F)C(=O)O1` [Example 2], the values for the IC50 in test [2] and in test [3] were 13.2 µg/mL (≈ 34.4 µM) and 148 µM, respectively. For the same molecule, the minimal inhibitory concentration (MIC) in test [1] came to 2 µg/mL (≈ 5.22 µM). Take `O=C1C=CN(c2ccc(N3C[C@H](COc4ccon4)OC3=O)c(F)c2F)CC1` [Example 16]: in test [1], the minimal inhibitory concentration (MIC) is 4 µg/mL (≈ 10.2 µM). With `COC(=O)NC[C@H]1CN(c2ccc(N3C=CC(=O)CC3)c(F)c2F)C(=O)O1` [Example 13], the figures for the IC50 in test [2] and in test [3] were 6.3 µg/mL (≈ 16.5 µM) and 44.8 µM, respectively. The same molecule showed an MIC in test [1] of 1 µg/mL (≈ 2.62 µM).

For the molecule `COC(=O)NC[C@H]1CN(c2cc(F)c(N3C=CC(=O)CC3)c(F)c2F)C(=O)O1` [Example 4], the IC50 in test [2] is 17.7 µg/mL (≈ 44.3 µM); in test [3], 54.3 µM. The molecule also returned an MIC in test [1] of 2 µg/mL (≈ 5.01 µM). For `O=C1C=CN(c2c(F)cc(N3C[C@H](CNc4ccon4)OC3=O)c(F)c2F)CC1` [Example 5], the IC50 in test [2] was 15.7 µg/mL (≈ 38.4 µM); in test [3] it was 30.1 µM. The same molecule yielded an MIC in test [1] of 1 µg/mL (≈ 2.45 µM).
